This note sets out measurements from patent US7335770B2, “Triazine compounds and their analogs, compositions, and methods” (Reddy U5 Therapeutics, Inc., priority 2004, dated 2008).

For orientation: inhibition means the percentage by which the read-out fell short of the control. In general, melting point refers to the temperature, or range, at which the solid turns liquid.

For one series, the system named is MCP1. Put plainly: inhibition of TNF-induced MCP1. It counts as cell-based. To be noted: @ 10 uM concentration; read-out: TNF-induced MCP1, In-vitro % of inhibition. As for the experimental part: The activity of the compounds of the present invention in inhibiting glycated protein- and AGE-induced inflammation can be determined using the assays described herein and in U.S. patent application Ser. No. 10/026,335, which is herein incorporated in its entirety. Such assays comprise measurement of the specific activity of biological components involved in a known cellular response. The assays provide a measurable response in which the activity of the compounds is determined. One assay comprises measurement of the effects of compounds on an inflammatory response by cells to the presence of a stimulating agent. Yet another assay comprises endothelial cells that are stimulated by the addition of a glycated protein, the stimulating agent. The endothelial cells respond by producing specific cytokines. The amount of cytokines produced are determined by measurement protocols known to those skilled in the art. The compounds of the present invention are then added to the assay and the production of cytokines is measured. From the comparison of the assay without the compound with the assay with the compound, the biological effect of the compound can be determined. The compound may have an inhibitory effect, a stimulatory effect, or no effect at all.
The amount and type of cytokine produced can be determined using immunological methods, such as ELISA assays. The methods of the present invention are not limited by the type of assay used to measure the amount of cytokine produced, and any methods known to those skilled in the art and later developed can be used to measure the amount of cytokines produced in response to the stimulating agent and to the compound having unknown activity.
Assays for determining the activity of compounds capable of modulating inflammation include those taught in U.S. patent application Ser. No. 10/026,335 and 09/969,013, which are both expressly incorporated by reference. In general, once the baseline response to the stimulating agent for the production of cytokines by the endothelial cells is established, thus comprising the control levels for the screening assay, the methods comprise addition of compounds of the present invention. The effect of the compound on the baseline response is determined by comparing the amount of cytokine produced in the presence of the stimulating agent and the amount of cytokine produced in the presence of the stimulating agent and the compound of the present invention. In a preferred method, compounds that have inhibitory effects on the inflammation of the cells in the presence of glycated albumin are then used as therapeutic agents. One or more compounds may be added to the screening assay. Combinations or mixtures of compounds can be added. Different amounts and formulations of the compounds are added to determine the effects on the screening assay. The screening assay may also be used to determine stimulatory compounds or compounds that have no effects in the assay.

Series [1] concerns smooth muscle cells (SMC). Put plainly: anti-proliferation assay (perlecan). To be noted: for activity in anti-proliferation assay (Perlecan), in words: using the same activity scale used in Table 3; for pIC50: anti-proliferation assay (perlecan). Format: cell-based. The method in brief: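 Compounds are added to smooth muscle cells in growth or serum-free medium. The change in proliferation is measured, e.g. by labelled-nucleotide incorporation into DNA, against untreated cells; IC50 values are given as activity bins.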

The subject of the next series is IL6. Put plainly: inhibition of TNF-induced IL6 production. It counts as cell-based. The note with it: given as '50% at x μM'; read-out: Inhibition of TNF-induced IL6 production: concentration giving 50% inhibition.

The structures appear in SMILES notation. pIC50: −log10 of the molar value. Where a name gives a salt, the structure may show the parent alone. Read-outs that look alike come from different tables or passages of the source.

With `COc1ccc(Nc2nc(NC3CCCCCC3)nc(OCc3cccc(C)n3)n2)cc1Cl`, in the series with MCP1, the inhibition at 10 µM was determined as 48%.

On to `COc1ccc(Nc2nc(NC3CCCCCC3)nc(-c3cc(O)ccc3O)n2)cc1Cl`, for which the inhibition at 10 µM in the series with MCP1 came out at 100%.

Regarding `COc1ccc(Nc2nc(NC3CCCCCC3)nc(Oc3ccc(C#CC(C)(C)O)cc3)n2)cc1Cl`, the melting point lay within 132 to 134 °C.

As for `Cc1ccc(Nc2nc(NC3CCCCCC3)nc(N(C)C3CCN(C)CC3)n2)cc1F`, the melting point worked out at 93 °C.

In turn, `CN1CCC(N(C)c2nc(Nc3cccc(F)c3)nc(NC3CCCCCC3)n2)CC1` displayed a melting point of 86 °C.

Take `CCN1CCCC1CNc1nc(Nc2ccc(OCc3ccccc3)c(Cl)c2)nc(NC2CCCCCC2)n1` (stereo not shown): the melting point stood at 64 °C.

On to `COc1ccc(Nc2nc(NNC(=O)CCCCC3SCC4NC(=O)NC43)nc(NC3CCCCCC3)n2)cc1Cl` (stereo not shown), for which the melting point is 154 °C.

`COc1ccc(Oc2nc(Oc3ccc(OC)c(F)c3)nc(Oc3ccc(OC)c(F)c3)n2)cc1F` [2,4,6-Tris-(3-fluoro-4-methoxy-phenoxy)-[1,3,5]triazine] registered a melting point greater than 210 °C. In series [1], the “activity in anti-proliferation assay (Perlecan), in words” value is “high activity”.

Turning to `COc1ccc(Nc2nc(NC3CCCCCC3)nc(Oc3ccccc3I)n2)cc1Cl` [Example 10, N^2-(3-chloro-4-methoxyphenyl)-N-4-cycloheptyl-6-(2-iodophenoxy)-1,3,5-triazine-4,2-diamine], the melting point fell in the range of 206 to 208 °C.

`COc1ccc(Nc2nc(NC3CCCCCC3)nc(Oc3ccccc3C#CC(C)(C)O)n2)cc1Cl` [Example 12, 4-{2-[4-(3-chloro-4-methoxyanilino)-6-cycloheptylamino-1,3,5-triazine-2-yl-oxy]-phenyl}-2-methyl-3-butyn-2-ol] registered a melting point of 150 to 158 °C.

`COc1ccc(Nc2nc(NC3CCCCCC3)nc(Oc3ccc(C=O)cc3)n2)cc1Cl` [Example 15, 4-[4-(3-chloro-4-methoxyanilino)-6-cycloheptylamino-1,3,5-triazine-2-yl-oxy]-benzaldehyde] displayed a melting point of 218 to 220 °C.

For `COc1ccc(Nc2nc(NC3CCCCCC3)nc(Oc3ccc(C(C)=O)cc3Cl)n2)cc1Cl` [Example 19, 1-{3-chloro-4-[4-(3-chloro-4-methoxyphenylamino)-6-cycloheptylamino-[1,3,5]triazine-2-yloxy]phenyl}ethanone], the melting point fell in the range of 186 to 196 °C.

Consider `COc1ccc(Nc2nc(NC3CCCCCC3)nc(OCC3CCCO3)n2)cc1Cl` (stereo not shown) [Example 30, N-(3-Chloro-4-methoxy-phenyl)-N′-cycloheptyl-6-(tetrahydro-furan-2-ylmethoxy)-[1,3,5]triazine-2,4-diamine], for which the melting point is 61 °C.

In the case of `CCN1CCCC1CNc1nc(NC2CCCCCC2)nc(NC2CCC(O)CC2)n1` (stereo not shown) [Example 31, 4-{4-Cycloheptylamino-6-[(1-ethyl-pyrrolidin-2-ylmethyl)-amino]-[1,3,5]triazin-2-ylamino}-cyclohexanol], the melting point was determined as 92 °C.

As to `CCN1CCCC1CNc1nc(Nc2ccc(C)c(F)c2)nc(NC2CCCCCC2)n1` (stereo not shown) [Example 32, N-Cycloheptyl-N′-(1-ethyl-pyrrolidin-2-ylmethyl)-N″-(3-fluoro-4-methyl-phenyl)-[1,3,5]triazine-2,4,6-triamine], the melting point was 78 °C.

Turning to `COc1ccc(Nc2nc(NCC3CCCO3)nc(NC3CCCCCC3)n2)cc1Cl` (stereo not shown) [Example 37, N-(3-Chloro-4-methoxy-phenyl)-N′-cycloheptyl-N″-(tetrahydro-furan-2-ylmethyl)-[1,3,5]triazine-2,4,6-triamine], the melting point is 77 °C.

`COc1ccc(Nc2nc(NCCNC(=O)OC(C)(C)C)nc(NC3CCCCCC3)n2)cc1Cl` [Example 39, {2-[4-(3-Chloro-4-methoxy-phenylamino)-6-cycloheptylamino-[1,3,5]triazin-2-ylamino]-ethyl}-carbamic acid tert-butyl ester] returned a melting point of 94 °C.

The compound `COc1ccc(Nc2nc(NCCN)nc(NC3CCCCCC3)n2)cc1Cl` [Example 40, N-(2-Amino-ethyl)-N′-(3-chloro-4-methoxy-phenyl)-N″-cycloheptyl-[1,3,5]triazine-2,4,6-triamine] returned a melting point of 77 °C.

Consider `CCN1CCCC1CNc1nc(Nc2ccc(OC)c(F)c2)nc(N2CCN(CC(=O)N3CCCC3)CC2)n1` (stereo not shown) [drawing 600, 2-{4-[4-[(1-Ethyl-pyrrolidin-2-yl-methyl)-amino]-6-(3-fluoro-4-meth-oxy-phenylamino)-[1,3,5tri-azin-2-yl]-piperazin-1-yl}-1-pyr-rolidin-1-yl-ethanonedihydrogen chloride salt], for which, in series [1] (read-out: inhibition at 20 μM (printed in the Avg IC-50 column)), the inhibition at 20 µM came to 42%.

`CCOc1nc(Nc2ccc(OC)c(F)c2)nc(NC2CCCCCC2)n1` [drawing 601, N-Cycloheptyl-6-ethoxy-N′-(3-fluoro--4-methoxy-phenyl)-[1,3,5]tri-azine-2,4-diamine]: the pIC50 was 5.15 to 5.52 in series [1] (class of IC50, read-out: Activity (note 1)) and 5.35 in series [1] (some cells print no unit, read-out: Avg IC-50).

On to `COc1ccc(Nc2nc(NCCNC(=O)OC(C)(C)C)nc(NC3CCCCCC3)n2)cc1Cl` [drawing 602, {2-[4-(3-Chloro-4-meth-oxy-phenylamino)-6-cyclo-heptylamino-[1,3,5]triazin-2-ylamino]-eth-yl}-carbamic acid tert-butyl ester], for which the IC50 with IL6 came out at 15 µM.

Consider `COc1ccc(Nc2nc(NCCN)nc(NC3CCCCCC3)n2)cc1Cl` [drawing 603, N-(2-Amino-eth-yl)-N′-(3-chloro-4-methoxy-phe-nyl)-N″-cycloheptyl-[1,3,5]triazine-2,4,6-tri-amine], for which, in the series with IL6, the IC50 was found to be 2.7 µM.

`CCN1CCCC1CNc1nc(Nc2ccc(C)c(F)c2)nc(NC2CCCCCC2)n1` (stereo not shown) [drawing 604, N-Cycloheptyl-N′-(1-ethyl-pyrrolidin-2-yl-methyl)-N″-(3-fluoro-4-meth-yl-phenyl)-[1,3,5]tri-azine-2,4,6-triamine]: the IC50 in the series with IL6 was 3.3 µM.

For `Cc1ccc(Nc2nc(NC3CCCCCC3)nc(N(C)C3CCN(C)CC3)n2)cc1F` [drawing 605, N-Cycloheptyl--N′-(3-fluoro-4-methyl-phenyl)-N″-meth-yl-N″-(1-methyl-piperidin-4-yl)-[1,3,5]tri-azine-2,4,6-triamine], the IC50 in the series with IL6 turned out to be 3.6 µM.

Turning to `CN1CCC(N(C)c2nc(Nc3cccc([N+](=O)[O-])c3)nc(NC3CCCCCC3)n2)CC1` [drawing 606, N-Cycloheptyl-N′-methyl-N′-(1-methyl-piper-idin-4-yl)-N″-(3-nitro-phenyl)-[1,3,5]tri-azine-2,4,6-triamine], the IC50 with IL6 turned out to be 3.3 µM.

Turning to `CCc1occc(=O)c1Oc1nc(Nc2ccc(OC)c(Cl)c2)nc(NC2CCCCCC2)n1` [drawing 616], in the series with MCP1, the inhibition at 10 µM was 48%.

With `COc1ccc(Nc2nc(NC3CCCCCC3)nc(Oc3ccccc3F)n2)cc1Cl` [drawing 618], in the series on MCP1, the inhibition at 10 µM is 10%.

Turning to `COc1ccc(Nc2nc(NC3CCCCCC3)nc(Oc3ccc(C(C)=O)cc3)n2)cc1Cl` [drawing 624], the inhibition at 10 µM with MCP1 is 25%.

In the case of `COc1ccc(Nc2nc(NC3CCCCCC3)nc(Oc3ccc(/C=N\O)cc3)n2)cc1Cl` [drawing 625], in the series with MCP1, the inhibition at 10 µM was found to be 100%.

Consider `COc1ccc(Nc2nc(NC3CCCCCC3)nc(Oc3ccc(C(C)=O)cc3Cl)n2)cc1Cl` [drawing 626], for which, in the series with MCP1, the inhibition at 10 µM is 82%.

For `COc1ccc(Nc2nc(NC3CCCCCC3)nc(Sc3ccccc3)n2)cc1Cl` [drawing 628], in the series on MCP1, the inhibition at 10 µM is 10%.

In the case of `COc1ccc(Nc2nc(NC3CCCCCC3)nc(Sc3ccc(F)cc3)n2)cc1Cl` [drawing 630], the inhibition at 10 µM with MCP1 was 15%.

In the case of `COc1cc(OC)c(-c2nc(Nc3ccc(OC)c(Cl)c3)nc(NC3CCCCCC3)n2)c(OC)c1` [drawing 632], in the series on MCP1, the inhibition at 10 µM was found to be 10%.

Regarding `COc1ccc(Nc2nc(NC3CCCCCC3)nc(-c3c(O)ccc4ccccc34)n2)cc1Cl` [drawing 634], the inhibition at 10 µM in the series on MCP1 worked out at 100%.

`COc1ccc(Nc2nc(NCCNC(=O)OC(C)(C)C)nc(NC3CCCCCC3)n2)cc1Cl` [{2-[4-(3-Chloro-4-methoxy-phenylamino)-6-cycloheptylamino-[1,3,5]triazin-2-ylamino]-ethyl}-carbamic acid tert-butyl ester]: in series [1], the “activity in anti-proliferation assay (Perlecan), in words” value was “high activity”.
